# Laboratory results taken from patent US4861788A, “Antibacterial 1-normon-2-yl-heterocyclic compounds” (Beecham Group plc, priority 1983, dated 1989).
# Like-named read-outs stand apart in the source and are kept apart here.
# Tests used:
# [1] = test system: Strep. suis (group D) SPS11; assay: MIC against veterinary bacteria in vitro (Diagnostic Sensitivity Test Agar); settings: Streptococcus suis, 18 h
# Procedure: (§2) The activity of the normonyl derivatives of the Examples against various veterinarily important bacteria, was assayed in vitro using two-fold serial dilutions in Diagnostic Sensitivity Test Agar inoculated with 10^4 organisms.
# M. gallisepticum S6 = assay: MIC against Mycoplasma in vitro (Friis broth with agarose); format: cell-based; settings: Mycoplasmoides gallisepticum
# [2] = test system: Staph. aureus B4 (pen. resistant); assay: MIC against veterinary bacteria in vitro (Diagnostic Sensitivity Test Agar); settings: Staphylococcus aureus, 18 h
# Procedure: as §2
# M. hyopneumoniae TAM 6N = assay: MIC against Mycoplasma in vitro (Friis broth with agarose); format: cell-based; settings: Mesomycoplasma hyopneumoniae, TAM6N, 144 h
# Sarcina lutea 8340 = assay: MIC against human bacteria in vitro (nutrient agar, chocolated horse blood); format: cell-based; settings: Micrococcus luteus, 8340, 18 h
# Procedure: (§1) The activity of the normonyl derivaties of the Examples against various bacteria which are important in diseases of humans, was assayed in vitro using serial dilutions in nurient agar with 5% chocolated horse blood.
# Bacillus subtilis 6633 = assay: as above; format: cell-based
# Procedure: as §1
# P. mirabilis 889 = assay: as above; format: cell-based
# Procedure: as §1
# Strep. faecalis I = assay: as above; format: cell-based; settings: Enterococcus faecalis
# Procedure: as §1
# E. coli NCTC 10418 = assay: as above; format: cell-based; settings: Escherichia coli
# Procedure: as §1
# E. coli ESS = assay: as above; format: cell-based; settings: Escherichia coli
# Procedure: as §1
# Staph. aureus Russell = assay: as above; format: cell-based; settings: Staphylococcus aureus
# Procedure: as §1
# [3] = test system: Ps. aeruginosa NCTC 10662; assay: as above; format: cell-based; settings: Pseudomonas aeruginosa
# Procedure: as §1
# Staph. aureus Oxford [4] = assay: as above; format: cell-based; settings: Staphylococcus aureus
# Procedure: as §1
# [5] = test system: Haemophilus influenzae Wy21; assay: as above; format: cell-based
# Procedure: as §1
# [6] = test system: Strep. pyogenes R80/421-A; assay: as above; format: cell-based; settings: Streptococcus pyogenes
# Procedure: as §1
# Staph. aureus W2827 = assay: as above; format: cell-based; settings: Staphylococcus aureus
# Procedure: as §1
# Strep. spp. 64/848-C = assay: as above; format: cell-based
# Procedure: as §1
# K. aerogenes A = assay: as above; format: cell-based; settings: Klebsiella aerogenes
# Procedure: as §1
# [7] = test system: Corynebacterium xerosis 9755; assay: as above; format: cell-based
# Procedure: as §1
# [8] = test system: Pasteurella multocida 1633; assay: as above; format: cell-based
# Procedure: as §1
# Strep. agalactiae 2788-B = assay: as above; format: cell-based; settings: Streptococcus agalactiae
# Procedure: as §1
# [9] = test system: Staph. aureus 152 (pen. sens); assay: MIC against veterinary bacteria in vitro (Diagnostic Sensitivity Test Agar); settings: Staphylococcus aureus, 18 h
# Procedure: as §2
# Strep. dysgalactiae SPD1 = assay: as above; settings: Streptococcus dysgalactiae, SPD1, 18 h
# Procedure: as §2
# M. hyopneumoniae UCD 1 = assay: MIC against Mycoplasma in vitro (Friis broth with agarose); format: cell-based; settings: Mesomycoplasma hyopneumoniae, UCD1, 144 h
# [10] = test system: M. hyopneumoniae J2206/183^b; assay: as above; format: cell-based; settings: Mesomycoplasma hyopneumoniae, 144 h
# M. hyopneumoniae Str. 11 = assay: as above; format: cell-based; settings: Mesomycoplasma hyopneumoniae
# M. hyopneumoniae JF 435 = assay: as above; format: cell-based; settings: Mesomycoplasma hyopneumoniae, JF435, 144 h
# M. hyorhinis ATCC 23234 = assay: as above; format: cell-based; settings: Mesomycoplasma hyorhinis, ATCC23234, 144 h
# S. typhimurium S18 = assay: MIC against veterinary bacteria in vitro (Diagnostic Sensitivity Test Agar); settings: Salmonella enterica, 18 h
# Procedure: as §2
# Past. haemolytica PA5 = assay: as above; settings: Mannheimia haemolytica, PA5, 18 h
# Procedure: as §2
# M. pneumoniae ATCC 15492 = assay: MIC against Mycoplasma in vitro (Friis broth with agarose); format: cell-based; settings: Mycoplasmoides pneumoniae, ATCC15492, 144 h
# [11] = test system: Corynebacterium pyogenes CY1; assay: MIC against veterinary bacteria in vitro (Diagnostic Sensitivity Test Agar); settings: CY1, 18 h
# Procedure: as §2
# Staph. aureus Oxford [12] = assay: as above; settings: Staphylococcus aureus, 18 h
# Procedure: as §2
# [13] = 144 h, M. gallisepticum S6, 6 days at 37° C, read-out: MIC
# [14] = M. hyopneumoniae TAM 6N, 6 days at 37° C, read-out: MIC
# [15] = human, Bacillus subtilis 6633, 18 hours at 37° C, read-out: MIC
# [16] = Proteus mirabilis, human, P. mirabilis 889, 18 hours at 37° C, read-out: MIC
# [17] = human, Strep. faecalis I, 18 hours at 37° C, read-out: MIC
# [18] = NCTC10418, human, E. coli NCTC 10418, 18 hours at 37° C, read-out: MIC
# [19] = human, E. coli ESS, 18 hours at 37° C, read-out: MIC
# [20] = human, Staph. aureus Russell, 18 hours at 37° C, read-out: MIC
# [21] = NCTC10662, human, Ps. aeruginosa NCTC 10662, 18 hours at 37° C, read-out: MIC
# [22] = human, Staph. aureus Oxford, 18 hours at 37° C, read-out: MIC
# [23] = human, Haemophilus influenzae Wy21, 18 hours at 37° C, read-out: MIC
# [24] = human, Strep. pyogenes R80/421-A, 18 hours at 37° C, read-out: MIC
# [25] = human, Staph. aureus W2827, 18 hours at 37° C, read-out: MIC
# [26] = human, Strep. spp. 64/848-C, 18 hours at 37° C, read-out: MIC
# [27] = human, K. aerogenes A, 18 hours at 37° C, read-out: MIC
# [28] = human, Corynebacterium xerosis 9755, 18 hours at 37° C, read-out: MIC
# [29] = human, Pasteurella multocida 1633, 18 hours at 37° C, read-out: MIC
# [30] = human, Strep. agalactiae 2788-B, 18 hours at 37° C, read-out: MIC
# [31] = M. hyopneumoniae UCD 1, 6 days at 37° C, read-out: MIC
# [32] = M. hyopneumoniae J2206/183^b, 6 days at 37° C, read-out: MIC
# [33] = 144 h, M. hyopneumoniae Str. 11, 6 days at 37° C, read-out: MIC
# [34] = M. hyopneumoniae JF 435, 6 days at 37° C, read-out: MIC
# [35] = M. hyorhinis ATCC 23234, 6 days at 37° C, read-out: MIC
# [36] = M. pneumoniae ATCC 15492, 6 days at 37° C, read-out: MIC
smiles,measurement,setting,value
"CC(=CC(=O)NN)CC1OCC(CC2OC2C(C)C(C)O)C(O)C1O (stereo not drawn) [Example 9, Monohydrazide A]",MIC,[1],> 80 µg/mL
same,MIC,"M. gallisepticum S6; S6, 144 h",> 10 µg/mL
same,MIC,[2],80 µg/mL
same,MIC,M. hyopneumoniae TAM 6N,10 µg/mL
same,MIC,Sarcina lutea 8340,> 100 µg/mL
same,MIC,"Bacillus subtilis 6633; Bacillus subtilis, 6633, 18 h",≥ 100 µg/mL
same,MIC,"P. mirabilis 889; Proteus mirabilis, 889, 18 h",≥ 100 µg/mL
same,MIC,Strep. faecalis I; 18 h,> 100 µg/mL
same,MIC,"E. coli NCTC 10418; NCTC10418, 18 h",> 100 µg/mL
same,MIC,E. coli ESS; 18 h,≥ 100 µg/mL
same,MIC,Staph. aureus Russell; 18 h,≥ 100 µg/mL
same,MIC,"[3]; NCTC10662, 18 h",> 100 µg/mL
same,MIC,Staph. aureus Oxford [4]; 18 h,100 µg/mL
same,MIC,"[5]; Haemophilus influenzae, WY21, 18 h",2.5 µg/mL
same,MIC,"[6]; R80/421A, 18 h",100 µg/mL
same,MIC,"Staph. aureus W2827; W2827, 18 h",≥ 100 µg/mL
same,MIC,Strep. spp. 64/848-C; 18 h,≥ 100 µg/mL
same,MIC,K. aerogenes A; 18 h,> 100 µg/mL
same,MIC,"[7]; Corynebacterium xerosis, 9755, 18 h",> 100 µg/mL
same,MIC,"[8]; Pasteurella multocida, 1633, 18 h",10 µg/mL
same,MIC,"Strep. agalactiae 2788-B; 2788B, 18 h",≥ 100 µg/mL
same,MIC,[9],80 µg/mL
same,MIC,Strep. dysgalactiae SPD1,> 80 µg/mL
same,MIC,M. hyopneumoniae UCD 1,10 µg/mL
same,MIC,[10],10 µg/mL
same,MIC,"M. hyopneumoniae Str. 11; STR.11, 144 h",5 µg/mL
same,MIC,M. hyopneumoniae JF 435,10 µg/mL
same,MIC,M. hyorhinis ATCC 23234,> 10 µg/mL
same,MIC,S. typhimurium S18,> 80 µg/mL
same,MIC,Past. haemolytica PA5,40 µg/mL
same,MIC,M. pneumoniae ATCC 15492,> 10 µg/mL
same,MIC,[11],> 80 µg/mL
"COC(=O)CCCCCCCCn1nnnc1C=C(C)CC1OCC(CC2OC2C(C)C(C)O)C(O)C1O (stereo not drawn) [Example 13, 1-(8-Methoxycarbonyloctyl)-5-(1-normon-2-yl)-1H-tetrazole A]",MIC,[1],> 80 µg/mL
same,MIC,M. gallisepticum S6; [13],> 10 µg/mL
same,MIC,[2],> 80 µg/mL
same,MIC,M. hyopneumoniae TAM 6N; [14],> 10 µg/mL
same,MIC,Bacillus subtilis 6633; [15],> 64 µg/mL
same,MIC,P. mirabilis 889; [16],> 64 µg/mL
same,MIC,Strep. faecalis I; [17],> 64 µg/mL
same,MIC,E. coli NCTC 10418; [18],> 64 µg/mL
same,MIC,E. coli ESS; [19],> 64 µg/mL
same,MIC,Staph. aureus Russell; [20],> 64 µg/mL
same,MIC,[3]; [21],> 64 µg/mL
same,MIC,Staph. aureus Oxford [4]; [22],> 64 µg/mL
same,MIC,[5]; [23],16 µg/mL
same,MIC,[6]; [24],> 64 µg/mL
same,MIC,Staph. aureus W2827; [25],> 64 µg/mL
same,MIC,Strep. spp. 64/848-C; [26],> 64 µg/mL
same,MIC,K. aerogenes A; [27],> 64 µg/mL
same,MIC,[7]; [28],> 64 µg/mL
same,MIC,[8]; [29],64 µg/mL
same,MIC,Strep. agalactiae 2788-B; [30],> 64 µg/mL
same,MIC,[9],20 µg/mL
same,MIC,Strep. dysgalactiae SPD1,> 80 µg/mL
same,MIC,M. hyopneumoniae UCD 1; [31],> 10 µg/mL
same,MIC,Staph. aureus Oxford [12],40 µg/mL
same,MIC,[10]; [32],> 10 µg/mL
same,MIC,M. hyopneumoniae Str. 11; [33],> 10 µg/mL
same,MIC,M. hyopneumoniae JF 435; [34],> 10 µg/mL
same,MIC,M. hyorhinis ATCC 23234; [35],> 10 µg/mL
same,MIC,S. typhimurium S18,> 80 µg/mL
same,MIC,Past. haemolytica PA5,> 80 µg/mL
same,MIC,M. pneumoniae ATCC 15492; [36],> 10 µg/mL
same,MIC,[11],> 80 µg/mL
"CC(=Cc1nnnn1CCCCCCCCC(=O)O)CC1OCC(CC2OC2C(C)C(C)O)C(O)C1O (stereo not drawn) [Example 14, Sodium 1-(8-carboxylatooctyl)-5-(1-normon-2-yl)-1H-tetrazole A]",MIC,[1],> 80 µg/mL
same,MIC,M. gallisepticum S6; [13],> 10 µg/mL
same,MIC,[2],> 80 µg/mL
same,MIC,M. hyopneumoniae TAM 6N; [14],> 10 µg/mL
same,MIC,Bacillus subtilis 6633; [15],> 128 µg/mL
same,MIC,P. mirabilis 889; [16],> 128 µg/mL
same,MIC,Strep. faecalis I; [17],> 128 µg/mL
same,MIC,E. coli NCTC 10418; [18],> 128 µg/mL
same,MIC,E. coli ESS; [19],> 128 µg/mL
same,MIC,Staph. aureus Russell; [20],> 128 µg/mL
same,MIC,[3]; [21],> 128 µg/mL
same,MIC,Staph. aureus Oxford [4]; [22],> 128 µg/mL
same,MIC,[5]; [23],128 µg/mL
same,MIC,[6]; [24],> 128 µg/mL
same,MIC,Staph. aureus W2827; [25],> 128 µg/mL
same,MIC,Strep. spp. 64/848-C; [26],> 128 µg/mL
same,MIC,K. aerogenes A; [27],> 128 µg/mL
same,MIC,[7]; [28],> 128 µg/mL
same,MIC,[8]; [29],64 µg/mL
same,MIC,Strep. agalactiae 2788-B; [30],> 128 µg/mL
same,MIC,[9],> 80 µg/mL
same,MIC,Strep. dysgalactiae SPD1,> 80 µg/mL
same,MIC,M. hyopneumoniae UCD 1; [31],> 10 µg/mL
same,MIC,Staph. aureus Oxford [12],> 80 µg/mL
same,MIC,[10]; [32],> 10 µg/mL
same,MIC,M. hyopneumoniae Str. 11; [33],> 10 µg/mL
same,MIC,M. hyopneumoniae JF 435; [34],> 10 µg/mL
same,MIC,M. hyorhinis ATCC 23234; [35],> 10 µg/mL
same,MIC,S. typhimurium S18,> 80 µg/mL
same,MIC,Past. haemolytica PA5,> 80 µg/mL
same,MIC,M. pneumoniae ATCC 15492; [36],> 10 µg/mL
same,MIC,[11],> 80 µg/mL
